Reference: patent US20040063580A1, “Bicyclic triazolone derivatives and a herbicides containing the same” (priority 2000, published 2004)
“And” between values parts separate entries of the source, which are not always exact repeats. Equal entries are not always repeated.

What was measured:
[1] = tested on: corn; assay: Post emergence test, phytotoxicity on the crop corn; type: in vivo; conditions: post emergence spray, evaluated two weeks after treatment
Experimental: (§1) Herbicidal Effects Against Weeds (Post Emergence)
(§2) After filling 300 g field soil in jiffypot™ having diameter of 10 cm, the soil was steam sterilized. Seeds of velvetleaf, redroot pigweed, tall morningglory and corn onto the surface of the soil were scattered, and then covered with the soil to a thickness of 0.5 cm for the weed, 1 cm for the crop. When the weed and the crop reached the designated growth stage, they were treated with the compound to be tested.
(§3) Preparation of the Test Solution and the Method of Treatment
(§4) The compound to be tested was dissolved in acetone which contain Tween 20™ and diluted with deionized water to prepare the test solution for 10 g/a and 1 g/a use. The test solution was sprayed on the pots in a device for spraying using spraygun.
(§5) Method of Indicating the Effect and Phytotoxicity
(§6) The effect of the compound tested on the weeds and phytotoxicity on the crops were evaluated two weeks after treatment with the compound as 6 grades from 0 to 5 shown in the Table 9 and 10.
The phytotoxicity was indicated by the following evaluation index.

[2] = tested on: velvetleaf; assay: Herbicidal effects against weeds (post emergence), velvetleaf; type: in vivo; conditions: post emergence spray, evaluated two weeks after treatment
Experimental: as §1, §2, §3, §4, §5, §6
(§7) In the Table 11 and 12, the herbicidal effects were indicated by the following evaluation index.

[3] = tested on: redroot pigweed; assay: Herbicidal effects against weeds (post emergence), redroot pigweed; type: in vivo; conditions: post emergence spray, evaluated two weeks after treatment
Experimental: as §1, §2, §3, §4, §5, §6, §7

Structure (SMILES)	Evaluation index Corn (phytotoxicity) ([1]; 10 g/a)	Evaluation index Velvet leaf ([2]; 10 g/a)	Evaluation index Redroot pigweed ([3]; 10 g/a)	melting point	Evaluation index Corn (phytotoxicity) ([1]; 1 g/a)	Evaluation index Velvet leaf ([2]; 1 g/a)	Evaluation index Redroot pigweed ([3]; 1 g/a)
CCS(=O)(=O)Nc1cc(-n2nc3ccc(Cl)cn3c2=O)c(F)cc1Cl [Compound No. A-35, 6-Chloro-2-(4-chloro-5-ethanesulfonylamino-2-fluorophenyl)-1,2,4-triazolo[4,3-a]pyridin-3(2H)-one]	1 (small 0.1 to 12.5)	5 (maximum *all dead) 100)	5 (maximum *all dead) 100)	121 to 123 °C and 120 to 122 °C	–	–	–
COC(=O)C(Cl)Cc1cc(-n2nc3ccc(Cl)cn3c2=O)c(F)cc1Cl (centres unmarked) [Compound No. A-43, Methyl 2-chloro-3-[2-chloro-4-fluoro-5-(6-chloro-2,3-dihydro-3-oxo-1,2,4-triazolo[4,3-a]pyridin-2-yl)phenyl]propionate]	0 (no effect 0)	5 (maximum *all dead) 100)	5 (maximum *all dead) 100)	–	0 (no effect 0)	5 (maximum *all dead) 100)	5 (maximum *all dead) 100)
CC(C)S(=O)(=O)Nc1cc(-n2nc3ccc(Cl)cn3c2=O)c(F)cc1C#N [A-11]	–	5 (maximum *all dead) 100)	5 (maximum *all dead) 100)	–	–	–	–
CCC(=O)NS(=O)(=O)c1cc(-n2nc3ccc(Cl)cn3c2=O)c(F)cc1C#N [Compound No. A-20, 5-(6-Chloro-2,3-dihydro-3-oxo-1,2,4-triazolo[4,3-a]pyridin-2-yl)-2-cyano-4-fluoro-N-propionylbenzenesul fonamide]	–	–	–	190 to 194 °C	–	–	–
CCCS(=O)(=O)Nc1cc(-n2nc3ccc(Cl)cn3c2=O)c(F)cc1[N+](=O)[O-] [A-40]	–	5 (maximum *all dead) 100)	5 (maximum *all dead) 100)	–	–	–	–
C#CCOc1cc(-n2nc3c(Cl)cc(Cl)cn3c2=O)c(F)cc1C#N [Compound No. A-49, 6,8-Dichloro-2-(4-cyano-2-fluoro-5-propargyloxyphenyl)-1,2,4-triazolo[4,3-a]pyridin-3(2H)-one]	–	–	–	145 to 147 °C	–	–	–
COc1cc(-n2nc3ccc(Cl)cn3c2=O)c(F)cc1Cl [Compound No. A-23, 6-Chloro-2-(4-chloro-2-fluoro-5-methoxyphenyl)-1,2,4-triazolo[4,3-a]pyridin-3(2H)-one]	–	–	–	140 to 142 °C	–	–	–
CCOC(=O)C=Cc1cc(-n2nc3ccc(Cl)cn3c2=O)c(F)cc1Cl [A-42, Ethyl 2-chloro-4-fluoro-5-(6-chloro-2,3-dihydro-3-oxo-1,2,4-triazolo[4,3-a]pyridin-2-yl)cinnamate]	–	–	–	162 to 165 °C	–	–	–
C#CCOc1cc(-n2nc3ccc(Cl)cn3c2=O)c(F)cc1C#N [Compound No. A-14, 6-Chloro-2-(4-cyano-2-fluoro-5-propargyloxyphenyl)-1,2,4-triazolo[4,3-a]pyridin-3(2H)-one]	–	–	–	209 to 211 °C	–	–	–
C=CCOc1cc(-n2nc3ccc(Cl)cn3c2=O)c(F)cc1Cl [Compound No. A-24]	–	5 (maximum *all dead) 100)	5 (maximum *all dead) 100)	–	–	4 (maximum 87.6 to 99.9)	5 (maximum *all dead) 100)
CC(C)OC(=O)c1cc(-n2nc3ccc(Cl)cn3c2=O)c(F)cc1Cl [Compound No. A-33, Isopropyl 2-chloro-4-fluoro-5-(6-chloro-2,3-dihydro-3-oxo-1,2,4-triazolo[4,3-a]pyridin-2-yl)benzoate]	–	–	–	120 to 123 °C	–	–	–
CC(C)c1sc(F)c(-n2nc3ccc(Cl)cn3c2=O)c1C#N [Compound No. A-18, 6-Chloro-2-(4-cyano-2-fluoro-5-isopropylthiophenyl)-1,2,4-triazolo[4,3-a]pyridin-3(2H)-one]	–	–	–	148 to 150 °C	–	–	–
CCOC(=O)C(C)Oc1cc(-n2nc3ccc(Cl)cn3c2=O)c(F)cc1Cl (centres unmarked) [A-28]	–	5 (maximum *all dead) 100)	5 (maximum *all dead) 100)	–	–	4 (maximum 87.6 to 99.9)	5 (maximum *all dead) 100)
CCC(=O)N(c1cc(-n2nc3ccc(Cl)cn3c2=O)c(F)cc1C#N)S(=O)(=O)CC [A-7]	–	5 (maximum *all dead) 100)	5 (maximum *all dead) 100)	–	–	–	–
CCS(=O)(=O)Nc1cc(-n2nc3n(c2=O)CCCN3C)c(F)cc1C#N [Compound No. F-2, 5,6,7,8-Tetrahydro-8-methyl-2-(4-cyano-5-ethylsulfonylamino-2-fluorophenyl)-[1,2,4]triazolo [4,3-a]pyrimidin-3(2H)-one]	3 (big 25.1 to 50.0)	5 (maximum *all dead) 100)	5 (maximum *all dead) 100)	–	1 (small 0.1 to 12.5)	4 (maximum 87.6 to 99.9)	5 (maximum *all dead) 100)
C#CCN(c1cc(-n2nc3ccc(Cl)cn3c2=O)c(F)cc1C#N)S(=O)(=O)CC [Compound No. A-5, 6-Chloro-2-[4-cyano-5-(N-ethanesulfonyl-N-propargylamino)-2-fluorophenyl]-1,2,4-triazolo[4,3-a]pyridin-3(2H)-one]	–	–	–	176 to 178 °C	–	–	–
C=CCOc1cc(-n2nc3ccc(Cl)cn3c2=O)c(F)cc1C#N [Compound No. A-13, 2-(5-Allyloxy-4-cyano-2-fluorophenyl)-6-chloro-1,2,4-triazolo[4,3-a]pyridin-3(2H)-one]	–	–	–	183 to 185 °C	–	–	–
C#CC(C)Oc1cc(-n2nc3ccc(Cl)cn3c2=O)c(F)cc1Cl (centres unmarked) [A-26]	–	5 (maximum *all dead) 100)	5 (maximum *all dead) 100)	–	–	5 (maximum *all dead) 100)	5 (maximum *all dead) 100)
CCS(=O)(=O)Nc1cc(-n2nc3n(c2=O)CC(C)S3)c(F)cc1C#N (centres unmarked) [C-4]	–	5 (maximum *all dead) 100)	5 (maximum *all dead) 100)	–	–	5 (maximum *all dead) 100)	5 (maximum *all dead) 100)
CCOC(=O)COc1cc(-n2nc3cc(C)ccn3c2=O)c(F)cc1Cl [A-55]	–	4 (maximum 87.6 to 99.9)	5 (maximum *all dead) 100)	–	–	–	–
CCS(=O)(=O)N(C(=O)C(C)(C)C)c1cc(-n2nc3ccc(Cl)cn3c2=O)c(F)cc1C#N [A-8]	–	5 (maximum *all dead) 100)	5 (maximum *all dead) 100)	–	–	5 (maximum *all dead) 100)	5 (maximum *all dead) 100)
CC(C)S(=O)(=O)Nc1cc(-n2nc3ccc(Cl)cn3c2=O)c(F)cc1[N+](=O)[O-] [A-41]	–	5 (maximum *all dead) 100)	5 (maximum *all dead) 100)	–	–	5 (maximum *all dead) 100)	5 (maximum *all dead) 100)
C=C(Cl)COc1cc(-n2nc3ccc(Cl)cn3c2=O)c(F)cc1Cl [A-61]	–	4 (maximum 87.6 to 99.9)	5 (maximum *all dead) 100)	–	–	–	–
CCS(=O)(=O)Nc1cc(-n2nc3n(c2=O)CCS3)c(F)cc1C#N [Compound No. C-2, 5,6-Dihydro-2-(4-cyano-5-ethylsulfonylamino-2-fluorophenyl)thiazolo[2,3-c][1,2,4]triazol-3(2H)-one]	0 (no effect 0)	5 (maximum *all dead) 100)	5 (maximum *all dead) 100)	–	0 (no effect 0)	5 (maximum *all dead) 100)	5 (maximum *all dead) 100)
CNS(=O)(=O)c1cc(-n2nc3ccc(Cl)cn3c2=O)c(F)cc1C#N [Compound No. A-21, 5-(6-Chloro-2,3-dihydro-3-oxo-1,2,4-triazolo[4,3-a]pyridin-2-yl)-2-cyano-4-fluoro-N-methylbenzenesulfonamide]	–	–	–	154 to 157 °C	–	–	–
CCS(=O)(=O)Nc1cc(-n2nc3ccc(Br)cn3c2=O)ccc1C#N [A-45]	–	–	–	–	–	5 (maximum *all dead) 100)	5 (maximum *all dead) 100)
